Here are results for three compounds from patent publication US20110045982A1, “HERBICIDAL COMPOSITION” (NOF CORPORATION, priority 2009, published 2011).

This data set deals with Japanese white rabbits. The following applies: hydrolysate of base compound, 50% in purified water, 0.1 mL instilled, three male rabbits; observed 1, 6, 12 and 24 hr. Here is the method:
Assuming that the base compound is hydrolyzed in the natural world, the biological reaction of hydrolysate was evaluated by eye irritancy. To be specific, the base compound (10 g) shown in Table 1 was added to 100 mL of water, and the mixture was adjusted to pH 10 with an aqueous sodium hydroxide solution. The mixture was placed in a flask, heated to 80° C., and stirred for 1 hr while adding an aqueous sodium hydroxide solution as appropriate every 10 min to maintain pH 10. The mixture was adjusted to pH 3.5 with an aqueous hydrochloric acid solution, and the mixture was washed 3 times with hexane to remove fatty acid. The solution was neutralized with an aqueous sodium hydroxide solution, evaporated and filtered to remove sodium chloride. The viscous liquid was diluted with purified water to a concentration of 50% and used as an eye irritancy measurement sample.
Using three male Japanese white rabbits per sample, the above-mentioned eye irritancy measurement sample (0.1 mL) was instilled into the unilateral intracapsular conjunctiva of each test animal, and the upper and lower eyelids were gently closed and maintained for about 1 sec. The other eye was used as control without treatment. After instillation, the cornea, iris, conjunctiva and the like were observed 1, 6, 12 and 24 hr later.
For `CCCCCCCC(=O)OCC(COC(=O)CCCCCCC)OC(=O)CCCCCCC` [Ex. 1, Glycerol tricaprylic acid ester], the “eye irritancy of hydrolysate” value was “no problem”.

`CCCCCCCCC(=O)OCCO` [compound 4, ethylene glycol monopelargric acid ester, reference compound]: the “eye irritancy of hydrolysate” value was “problematic”.

As to `CCCCCCCCCCCC(=O)OCC(O)CO` (stereo not drawn) [Ex. 7, Glycerol monolauric acid ester], the “eye irritancy of hydrolysate” value is “no problem”.
